From the supplement of paper PMC10307832

How the values were obtained:
Assay in all cases: relative viability (nuclei count vs DMSO), 5 days (fraction); higher = more cells survive
Decitabine + AZD7762 = compound: Nc1ncn([C@H]2C[C@H](O)[C@@H](CO)O2)c(=O)n1 [Decitabine] + NC(=O)Nc1cc(-c2cccc(F)c2)sc1C(=O)N[C@H]1CCCNC1 [AZD7762] (partner 0.2 µM)
In short: (§1)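 Dosing by pin tool came one day after lung cancer cell lines were seeded in 1536-well plates, using either one drug or a fixed anchor-drug dose plus five library-drug doses (not always all listed) in √10 steps. After 5 days, nuclei were counted on 4× images. Relative viability is treated-well nuclei count divided by vehicle-well nuclei count, and values are medians of duplicate plates.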

Cediranib + Alpelisib = compound: COc1cc2c(Oc3ccc4[nH]c(C)cc4c3F)ncnc2cc1OCCCN1CCCC1 [Cediranib] + Cc1nc(NC(=O)N2CCC[C@H]2C(N)=O)sc1-c1ccnc(C(C)(C)C(F)(F)F)c1 [Alpelisib] (partner 2 µM)
In short: as §1

Decitabine + Trametinib = compound: Nc1ncn([C@H]2C[C@H](O)[C@@H](CO)O2)c(=O)n1 [Decitabine] + CC(=O)Nc1cccc(-n2c(=O)n(C3CC3)c(=O)c3c(Nc4ccc(I)cc4F)n(C)c(=O)c(C)c32)c1 [Trametinib] (partner 0.02 µM)
In short: as §1

Cell Line | relative viability (Decitabine + AZD7762; first compound 0.04 µM) | relative viability (Decitabine + AZD7762; first compound 0.1265 µM) | relative viability (Decitabine + AZD7762; first compound 0.4 µM) | relative viability (Decitabine + AZD7762; first compound 4 µM) | relative viability (Cediranib + Alpelisib; first compound 0.04 µM) | relative viability (Cediranib + Alpelisib; first compound 0.1265 µM) | relative viability (Cediranib + Alpelisib; first compound 0.4 µM) | relative viability (Cediranib + Alpelisib; first compound 1.265 µM) | relative viability (Cediranib + Alpelisib; first compound 4 µM) | relative viability (Decitabine + Trametinib; first compound 0.04 µM) | relative viability (Decitabine + Trametinib; first compound 0.1265 µM) | relative viability (Decitabine + Trametinib; first compound 0.4 µM) | relative viability (Decitabine + Trametinib; first compound 4 µM) | relative viability (Decitabine + AZD7762; first compound 1.265 µM) | relative viability (Decitabine + Trametinib; first compound 1.265 µM)
201T | 0.463 | 0.514 | 0.38 | 0.353 | 1.03 | 1.24 | 1.04 | 0.992 | 1.03 | 0.739 | 0.721 | 0.773 | 0.708 |  | 
A549 |  |  |  |  | 0.698 | 0.947 | 0.654 | 0.701 | 0.869 |  |  |  |  |  | 
A-427 | 0.464 | 0.512 | 0.425 | 0.285 | 1.04 |  | 1.08 | 1.01 | 1.08 | 0.594 | 0.677 | 0.461 | 0.401 | 0.278 | 0.394
ABC-1 | 0.668 | 0.814 | 0.712 | 0.84 | 1.06 | 1.01 | 1.04 |  | 1.07 |  |  |  |  | 0.701 | 
BEN | 0.691 | 0.791 | 0.55 | 0.664 | 1.17 | 0.814 | 0.906 | 1.04 | 0.953 | 1.1 | 0.947 | 0.772 | 0.622 | 0.586 | 0.558
CAL-12T | 0.638 | 0.578 | 0.48 | 0.453 | 1.38 | 1.13 | 1.05 | 1.26 | 1.13 | 0.303 | 0.361 | 0.217 | 0.294 | 0.443 | 0.265
COR-L23 |  |  |  |  | 0.916 | 0.788 | 0.816 | 0.829 | 0.815 | 0.374 | 0.452 | 0.321 | 0.23 |  | 0.219
COR-L 105 |  |  |  |  |  | 1.14 | 0.862 | 1.14 | 1.1 | 0.411 | 0.461 | 0.451 | 0.383 |  | 0.429
Calu-6 |  |  |  |  | 1.06 | 1.01 | 0.991 | 0.935 | 1.04 |  |  |  |  |  | 
ChaGo-K-1 | 0.725 | 0.679 | 0.469 | 0.408 |  |  |  |  |  | 0.729 | 0.628 | 0.5 | 0.62 | 0.442 | 0.434
EBC-1 |  |  |  |  | 0.857 | 1.01 | 0.762 | 0.719 | 1.02 |  |  |  |  |  | 
EKVX | 0.505 | 0.611 | 0.549 | 0.33 | 0.961 | 1.2 | 0.849 | 0.879 | 0.836 | 0.254 | 0.25 | 0.259 | 0.23 | 0.394 | 0.221
EMC-BAC-2 |  | 1.15 | 0.908 | 0.846 | 0.788 | 0.796 | 0.707 | 0.728 | 0.801 |  | 0.935 | 0.795 | 0.8 | 0.911 | 0.841
EPLC-272H | 0.255 | 0.195 |  | 0.221 | 1.06 |  | 0.962 | 0.97 | 1 | 0.293 | 0.29 |  | 0.234 | 0.158 | 0.251
H3255 | 0.662 | 0.876 | 0.617 | 0.601 | 0.785 | 0.754 | 0.691 | 0.622 | 0.61 |  | 0.686 | 0.506 | 0.46 | 0.682 | 0.5
HARA | 0.353 | 0.464 | 0.165 | 0.315 | 0.844 | 1.14 | 0.837 | 0.857 | 1.01 | 0.285 | 0.454 | 0.491 | 0.304 | 0.203 | 0.228
HCC-15 | 1.12 | 0.777 | 0.752 | 0.747 | 0.961 |  | 0.827 | 0.933 | 0.961 | 0.4 | 0.399 | 0.353 | 0.313 | 0.632 | 0.338
HCC-44 | 1.08 | 0.974 | 0.932 | 1.06 | 0.754 |  | 0.731 | 0.784 | 0.898 | 1.04 | 0.991 | 0.833 | 0.75 | 1.06 | 0.819
HCC-78 | 0.549 | 0.605 | 0.565 | 0.466 | 0.361 | 0.379 | 0.323 | 0.386 | 0.287 | 0.758 | 0.688 | 0.581 | 0.451 | 0.474 | 0.544
HCC-366 | 0.208 | 0.276 | 0.114 | 0.0424 | 0.402 | 0.316 | 0.363 | 0.401 | 0.388 | 0.361 | 0.334 | 0.258 | 0.109 | 0.0535 | 0.12
HCC-827 | 0.113 | 0.169 | 0.188 | 0.193 | 1.06 |  | 0.957 | 0.985 | 0.926 | 0.222 | 0.378 | 0.322 | 0.344 | 0.173 | 0.257
HOP-62 | 0.361 | 0.297 | 0.143 | 0.147 | 1.16 |  | 0.74 | 0.96 | 1.18 | 0.358 | 0.338 | 0.262 | 0.187 | 0.117 | 0.202
IA-LM |  |  |  |  | 0.845 | 0.959 | 0.928 | 0.592 | 0.655 |  |  |  |  |  | 

Cell Line | relative viability (Decitabine + AZD7762; first compound 0.04 µM) | relative viability (Decitabine + AZD7762; first compound 0.1265 µM) | relative viability (Decitabine + AZD7762; first compound 0.4 µM) | relative viability (Decitabine + AZD7762; first compound 4 µM) | relative viability (Cediranib + Alpelisib; first compound 0.04 µM) | relative viability (Cediranib + Alpelisib; first compound 0.1265 µM) | relative viability (Cediranib + Alpelisib; first compound 0.4 µM) | relative viability (Cediranib + Alpelisib; first compound 1.265 µM) | relative viability (Cediranib + Alpelisib; first compound 4 µM) | relative viability (Decitabine + Trametinib; first compound 0.04 µM) | relative viability (Decitabine + Trametinib; first compound 0.1265 µM) | relative viability (Decitabine + Trametinib; first compound 0.4 µM) | relative viability (Decitabine + Trametinib; first compound 4 µM) | relative viability (Decitabine + AZD7762; first compound 1.265 µM) | relative viability (Decitabine + Trametinib; first compound 1.265 µM)
LC-2-ad | 0.769 | 0.846 | 0.925 | 0.63 | 0.994 | 0.97 | 0.809 | 0.86 | 0.635 | 0.778 | 0.837 | 0.763 | 0.573 | 0.491 | 0.651
LCLC-97TM1 | 0.0916 | 0.108 | 0.0741 | 0.0907 | 0.235 |  | 0.25 | 0.237 | 0.199 | 0.219 | 0.213 | 0.183 | 0.155 | 0.102 | 0.144
LCLC-103H | 0.746 | 0.728 | 0.649 | 0.551 | 1.03 | 1.08 | 0.98 | 0.932 | 0.917 | 0.659 | 0.714 | 0.771 | 0.688 | 0.639 | 0.623
LK-2 | 0.299 | 0.37 | 0.288 | 0.14 | 1.36 | 1.01 | 1.13 | 1.11 | 0.475 | 0.692 | 0.674 | 0.605 | 0.371 | 0.256 | 0.435
LOU-NH91 | 0.735 | 0.847 | 0.732 | 0.73 | 0.702 | 0.952 | 0.695 | 0.672 | 0.615 | 0.661 | 0.831 | 0.78 | 0.757 | 0.72 | 0.707
LU99A | 0.373 | 0.376 | 0.335 | 0.29 | 0.567 |  | 0.489 | 0.49 | 0.589 | 0.51 | 0.569 | 0.632 | 0.396 | 0.32 | 0.397
LXF-289 | 0.82 | 0.756 | 0.47 | 0.332 | 1.08 | 0.971 | 0.995 | 1.05 | 1.04 | 0.647 | 0.519 | 0.38 | 0.314 | 0.316 | 0.312
NCI-H520 |  |  |  |  | 1.05 |  | 0.838 | 0.795 | 0.846 | 0.529 | 0.349 | 0.424 | 0.266 |  | 0.307
NCI-H522 | 0.819 | 0.692 | 0.571 | 0.591 |  |  |  |  |  | 0.718 | 0.714 | 0.547 | 0.513 | 0.567 | 0.537
NCI-H661 |  |  |  |  | 0.633 | 1.03 | 0.631 | 0.522 | 0.588 | 0.502 | 0.577 | 0.508 | 0.404 |  | 0.392
NCI-H1299 |  |  |  |  | 1.09 | 1.03 | 1.01 | 1.04 | 1.14 |  |  |  |  |  | 
NCI-H1563 |  |  |  |  | 0.988 | 0.898 | 0.967 | 0.949 | 0.761 |  |  |  |  |  | 
NCI-H1648 | 0.692 | 0.672 | 0.469 | 0.428 |  |  |  |  |  | 0.442 | 0.462 | 0.452 | 0.355 | 0.448 | 0.379
NCI-H1650 |  |  |  |  |  |  |  |  |  | 0.369 | 0.642 | 0.536 | 0.287 |  | 0.326
NCI-H1703 | 0.111 | 0.0883 | 0.132 | 0.102 | 0.264 | 0.337 | 0.218 | 0.205 | 0.169 |  |  |  |  | 0.152 | 
NCI-H2009 |  |  |  |  | 1.18 | 1.13 | 1.09 | 1.16 | 1.14 | 0.227 | 0.255 | 0.229 | 0.252 |  | 0.181
NCI-H2023 |  |  |  |  | 0.667 | 0.706 | 0.58 | 0.559 | 0.667 | 0.473 | 0.464 | 0.296 | 0.197 |  | 0.196
NCI-H2228 |  |  |  |  | 0.955 | 0.85 | 0.791 | 0.929 | 0.826 | 0.396 | 0.394 | 0.358 | 0.204 |  | 0.198
NCI-H2342 | 0.507 | 0.593 | 0.517 | 0.319 |  |  |  |  |  | 0.959 | 1.03 | 0.88 | 0.72 | 0.457 | 0.606
SK-LU-1 |  |  |  |  | 0.753 | 1.2 | 0.958 | 0.933 | 1.01 | 0.443 | 0.528 | 0.386 | 0.365 |  | 0.45
SK-MES-1 |  |  |  |  | 0.835 | 0.916 | 0.8 | 0.924 | 1.02 | 0.485 | 0.595 | 0.453 | 0.382 |  | 0.345
SW 900 | 0.502 | 0.646 | 0.39 | 0.298 |  |  |  |  |  | 0.389 | 0.435 | 0.288 | 0.288 | 0.237 | 0.262
SW 1573 |  |  |  |  | 0.586 | 0.834 | 0.655 | 0.619 | 0.79 | 0.44 | 0.638 | 0.368 | 0.301 |  | 0.27
